Test results taken from ChEMBL document CHEMBL4507298 (2021).

Columns and labels:
[1] = biological target: Serine/threonine-protein kinase 24 (Homo sapiens) (UniProt Q9Y6E0); conditions: Compound concentration 1000.0 nM
[2] = biological target: Phosphatidylinositol 5-phosphate 4-kinase type-2 beta (Homo sapiens) (UniProt P78356); conditions: Compound concentration 1000.0 nM
[3] = biological target: Na+ channel (site 2), sodium channel alpha subunit (Homo sapiens, UniProt P35498+P35499+Q01118+Q14524+Q15858+Q99250+Q9NY46+Q9UI33+Q9UQD0+Q9Y5Y9); experiment: Na+ channel (site 2) CEREP ligand profiling; assay type: protein assay; conditions: compound concentration 10 uM
[4] = biological target: Serine/threonine-protein kinase Nek11 (Homo sapiens) (UniProt Q8NG66); conditions: Compound concentration 1000.0 nM
Chain of Serine/threonine-protein kinase Nek11 (Homo sapiens) (Q8NG66 whole entry): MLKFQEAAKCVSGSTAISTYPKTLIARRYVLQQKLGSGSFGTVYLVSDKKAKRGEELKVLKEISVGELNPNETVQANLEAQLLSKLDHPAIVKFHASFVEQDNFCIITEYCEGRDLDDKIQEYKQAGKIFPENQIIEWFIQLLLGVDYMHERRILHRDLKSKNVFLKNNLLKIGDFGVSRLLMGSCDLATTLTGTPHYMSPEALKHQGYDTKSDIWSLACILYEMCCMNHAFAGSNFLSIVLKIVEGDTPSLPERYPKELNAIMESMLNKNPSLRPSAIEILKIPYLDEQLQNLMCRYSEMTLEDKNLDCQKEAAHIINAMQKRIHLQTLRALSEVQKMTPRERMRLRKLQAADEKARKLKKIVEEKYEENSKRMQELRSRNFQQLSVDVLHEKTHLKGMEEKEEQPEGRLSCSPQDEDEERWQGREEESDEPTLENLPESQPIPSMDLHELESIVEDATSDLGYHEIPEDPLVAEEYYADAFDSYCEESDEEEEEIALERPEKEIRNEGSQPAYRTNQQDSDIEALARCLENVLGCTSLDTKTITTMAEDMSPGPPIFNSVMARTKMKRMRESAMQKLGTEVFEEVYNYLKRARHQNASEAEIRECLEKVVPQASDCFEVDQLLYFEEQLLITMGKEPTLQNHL

[5] = biological target: Serine/threonine-protein kinase D3 (Homo sapiens) (UniProt O94806); conditions: Compound concentration 1000.0 nM
[6] = system: Hepatocyte growth factor receptor (Homo sapiens), P08581 [Y1235D]; conditions: Compound concentration 1000.0 nM
[7] = biological target: Calcium-activated potassium channel (Homo sapiens) (UniProt Q92952+Q9UGI6+Q12791+O15554+Q9H2S1+A8MYU2); experiment: SK+Ca channel CEREP ligand profiling; assay type: protein assay; conditions: Compound concentration 10.0 uM
[8] = system: Phosphatidylinositol 4,5-bisphosphate 3-kinase catalytic subunit alpha isoform (Homo sapiens), P42336 [E542K]; conditions: Compound concentration 1000.0 nM
[9] = biological target: Serine/threonine-protein kinase SIK3 (Homo sapiens) (UniProt Q9Y2K2); conditions: Compound concentration 1000.0 nM
[10] = biological target: Mitogen-activated protein kinase kinase kinase kinase 5 (Homo sapiens) (UniProt Q9Y4K4); conditions: Compound concentration 1000.0 nM
[11] = biological target: Endothelin-1 receptor (Homo sapiens) (UniProt P25101); experiment: ETA (h) CEREP ligand profiling; conditions: Compound concentration 10.0 uM
Chain of Endothelin-1 receptor (Homo sapiens) (P25101 whole entry): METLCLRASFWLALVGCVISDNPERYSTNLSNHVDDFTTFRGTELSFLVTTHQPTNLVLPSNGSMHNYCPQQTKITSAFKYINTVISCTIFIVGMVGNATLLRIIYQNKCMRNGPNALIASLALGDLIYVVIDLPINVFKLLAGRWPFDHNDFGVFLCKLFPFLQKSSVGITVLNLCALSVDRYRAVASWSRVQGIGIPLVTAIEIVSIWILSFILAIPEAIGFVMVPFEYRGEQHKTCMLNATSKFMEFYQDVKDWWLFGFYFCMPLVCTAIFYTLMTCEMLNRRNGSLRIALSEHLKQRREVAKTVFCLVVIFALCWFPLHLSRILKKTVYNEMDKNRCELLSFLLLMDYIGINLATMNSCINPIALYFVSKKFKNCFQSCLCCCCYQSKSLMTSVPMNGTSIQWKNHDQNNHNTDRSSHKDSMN

[12] = biological target: Serine/threonine-protein kinase NLK (Homo sapiens) (UniProt Q9UBE8); conditions: Compound concentration 1000.0 nM
Chain of Serine/threonine-protein kinase NLK (Homo sapiens) (Q9UBE8 whole entry): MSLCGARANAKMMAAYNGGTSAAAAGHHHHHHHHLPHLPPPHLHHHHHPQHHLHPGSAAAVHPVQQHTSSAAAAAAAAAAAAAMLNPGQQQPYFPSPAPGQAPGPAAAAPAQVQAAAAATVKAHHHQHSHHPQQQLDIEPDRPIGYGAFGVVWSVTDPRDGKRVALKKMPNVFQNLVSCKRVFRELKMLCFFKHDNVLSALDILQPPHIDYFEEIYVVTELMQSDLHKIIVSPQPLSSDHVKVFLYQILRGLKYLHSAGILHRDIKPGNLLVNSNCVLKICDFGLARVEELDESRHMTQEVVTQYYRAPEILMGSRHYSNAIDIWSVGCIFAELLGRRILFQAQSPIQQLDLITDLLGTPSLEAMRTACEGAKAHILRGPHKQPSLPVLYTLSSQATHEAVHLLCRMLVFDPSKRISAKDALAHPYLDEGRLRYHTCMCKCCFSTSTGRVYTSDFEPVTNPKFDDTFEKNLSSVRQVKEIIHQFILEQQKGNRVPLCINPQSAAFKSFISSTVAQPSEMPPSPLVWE

[13] = biological target: Mitogen-activated protein kinase 10 (Homo sapiens) (UniProt P53779); conditions: Compound concentration 1000.0 nM
Chain of Mitogen-activated protein kinase 10 (Homo sapiens) (P53779 whole entry): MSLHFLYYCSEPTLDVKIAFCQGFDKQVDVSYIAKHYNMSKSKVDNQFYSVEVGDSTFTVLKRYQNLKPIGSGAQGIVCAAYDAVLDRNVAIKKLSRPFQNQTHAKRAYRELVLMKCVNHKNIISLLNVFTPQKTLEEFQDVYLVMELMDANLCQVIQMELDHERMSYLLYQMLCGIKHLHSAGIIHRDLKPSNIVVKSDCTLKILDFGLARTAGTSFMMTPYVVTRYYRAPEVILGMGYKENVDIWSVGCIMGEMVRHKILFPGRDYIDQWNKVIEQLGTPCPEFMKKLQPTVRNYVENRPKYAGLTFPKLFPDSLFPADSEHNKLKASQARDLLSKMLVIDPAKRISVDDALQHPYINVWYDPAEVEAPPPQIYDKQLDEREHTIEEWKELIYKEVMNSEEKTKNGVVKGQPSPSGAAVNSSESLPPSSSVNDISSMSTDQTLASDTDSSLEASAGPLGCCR

[14] = biological target: Mitogen-activated protein kinase kinase kinase 4 (Homo sapiens) (UniProt Q9Y6R4); conditions: Compound concentration 1000.0 nM
Chain of Mitogen-activated protein kinase kinase kinase 4 (Homo sapiens) (Q9Y6R4 whole entry): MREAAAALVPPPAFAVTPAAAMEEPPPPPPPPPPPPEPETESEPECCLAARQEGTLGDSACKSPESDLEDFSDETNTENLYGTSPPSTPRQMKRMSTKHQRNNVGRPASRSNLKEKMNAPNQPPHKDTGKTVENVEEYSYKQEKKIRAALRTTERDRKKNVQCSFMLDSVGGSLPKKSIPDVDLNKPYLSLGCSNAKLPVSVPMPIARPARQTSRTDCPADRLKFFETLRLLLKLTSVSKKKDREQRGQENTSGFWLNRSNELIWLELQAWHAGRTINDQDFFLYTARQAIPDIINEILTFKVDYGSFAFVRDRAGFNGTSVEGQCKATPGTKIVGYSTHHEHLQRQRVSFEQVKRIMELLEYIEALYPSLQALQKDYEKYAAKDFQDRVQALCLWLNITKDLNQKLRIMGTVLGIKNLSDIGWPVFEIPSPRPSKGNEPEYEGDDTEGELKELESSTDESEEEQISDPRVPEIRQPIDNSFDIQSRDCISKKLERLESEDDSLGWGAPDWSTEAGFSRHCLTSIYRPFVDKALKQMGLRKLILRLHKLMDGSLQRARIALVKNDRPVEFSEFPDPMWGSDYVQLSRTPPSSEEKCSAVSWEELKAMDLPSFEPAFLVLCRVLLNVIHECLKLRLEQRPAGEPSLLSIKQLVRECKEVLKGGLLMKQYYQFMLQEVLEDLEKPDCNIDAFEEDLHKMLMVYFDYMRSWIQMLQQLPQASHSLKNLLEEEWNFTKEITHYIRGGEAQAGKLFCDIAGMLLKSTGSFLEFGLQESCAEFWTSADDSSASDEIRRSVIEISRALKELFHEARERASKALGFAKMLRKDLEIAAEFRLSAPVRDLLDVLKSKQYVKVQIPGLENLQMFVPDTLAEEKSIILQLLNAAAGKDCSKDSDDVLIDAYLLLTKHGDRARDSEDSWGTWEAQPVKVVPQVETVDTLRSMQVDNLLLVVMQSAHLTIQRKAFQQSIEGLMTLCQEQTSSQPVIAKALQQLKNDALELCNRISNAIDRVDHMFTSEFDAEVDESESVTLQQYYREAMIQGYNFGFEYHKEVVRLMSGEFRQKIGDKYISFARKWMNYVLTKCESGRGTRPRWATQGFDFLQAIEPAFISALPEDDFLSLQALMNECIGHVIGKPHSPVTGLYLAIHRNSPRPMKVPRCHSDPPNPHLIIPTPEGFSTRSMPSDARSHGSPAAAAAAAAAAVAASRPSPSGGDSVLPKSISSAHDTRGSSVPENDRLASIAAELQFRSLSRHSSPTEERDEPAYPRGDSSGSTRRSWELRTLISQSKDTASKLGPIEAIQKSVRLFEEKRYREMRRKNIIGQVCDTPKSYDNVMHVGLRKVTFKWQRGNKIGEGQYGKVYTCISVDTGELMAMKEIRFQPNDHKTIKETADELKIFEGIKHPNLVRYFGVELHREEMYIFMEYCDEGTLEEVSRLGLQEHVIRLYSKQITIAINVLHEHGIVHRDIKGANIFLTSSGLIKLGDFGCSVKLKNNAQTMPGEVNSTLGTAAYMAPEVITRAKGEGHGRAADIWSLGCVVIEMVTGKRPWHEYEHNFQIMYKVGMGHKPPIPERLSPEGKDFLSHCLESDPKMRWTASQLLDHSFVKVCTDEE

[15] = biological target: MAP kinase-interacting serine/threonine-protein kinase 1 (Homo sapiens) (UniProt Q9BUB5); conditions: Compound concentration 1000.0 nM
[16] = biological target: Serine/threonine-protein kinase 38 (Homo sapiens) (UniProt Q15208); conditions: Compound concentration 1000.0 nM
[17] = system: Tyrosine-protein kinase ABL1 (Homo sapiens), P00519 [Q252H]; conditions: Compound concentration 1000.0 nM
[18] = biological target: Ephrin type-A receptor 3 (Homo sapiens) (UniProt P29320); conditions: Compound concentration 1000.0 nM
[19] = biological target: T1, Alpha-2C adrenergic receptor (Homo sapiens) (UniProt P18825); experiment: alpha 2C (h) CEREP ligand profiling; conditions: Compound concentration 10.0 uM
T1 sequence (whole entry): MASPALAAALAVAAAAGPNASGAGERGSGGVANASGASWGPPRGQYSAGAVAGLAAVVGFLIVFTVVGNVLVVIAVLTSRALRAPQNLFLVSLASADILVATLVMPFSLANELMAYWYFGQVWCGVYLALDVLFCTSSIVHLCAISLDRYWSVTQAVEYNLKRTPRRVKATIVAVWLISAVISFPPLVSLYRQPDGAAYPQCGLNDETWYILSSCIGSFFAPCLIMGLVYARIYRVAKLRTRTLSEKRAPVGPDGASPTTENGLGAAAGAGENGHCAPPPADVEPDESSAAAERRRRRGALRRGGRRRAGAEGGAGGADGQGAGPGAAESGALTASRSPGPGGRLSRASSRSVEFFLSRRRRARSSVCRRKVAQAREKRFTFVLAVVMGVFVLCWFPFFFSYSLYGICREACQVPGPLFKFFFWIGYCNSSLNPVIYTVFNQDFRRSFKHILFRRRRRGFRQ

[20] = biological target: Neuronal acetylcholine receptor; alpha4/beta2 (Homo sapiens) (UniProt P17787+P43681); experiment: N (neuronal) (alpha -BGTX-insensitive) (alpha 4 beta 2) CEREP ligand profiling; assay type: protein-complex assay; conditions: Compound concentration 10.0 uM
[21] = biological target: Tyrosine-protein kinase JAK2 (Homo sapiens) (UniProt O60674); conditions: Compound concentration 1000.0 nM
[22] = biological target: Serine/threonine-protein kinase 17A (Homo sapiens) (UniProt Q9UEE5); conditions: Compound concentration 1000.0 nM
Chain of Serine/threonine-protein kinase 17A (Homo sapiens) (Q9UEE5 whole entry): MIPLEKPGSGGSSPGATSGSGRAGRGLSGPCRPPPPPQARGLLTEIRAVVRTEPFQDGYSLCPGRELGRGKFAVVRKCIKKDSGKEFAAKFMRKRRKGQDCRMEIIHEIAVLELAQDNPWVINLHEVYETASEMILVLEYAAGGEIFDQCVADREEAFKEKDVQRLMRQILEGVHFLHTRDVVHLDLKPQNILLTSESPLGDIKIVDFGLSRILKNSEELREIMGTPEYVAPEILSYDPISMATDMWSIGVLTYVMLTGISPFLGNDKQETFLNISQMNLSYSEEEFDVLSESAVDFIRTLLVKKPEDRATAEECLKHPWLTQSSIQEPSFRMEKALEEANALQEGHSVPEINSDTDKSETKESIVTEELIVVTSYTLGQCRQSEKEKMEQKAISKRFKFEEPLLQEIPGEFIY

[23] = biological target: Angiotensin-converting enzyme (Homo sapiens) (UniProt P12821); experiment: ACE (h) CEREP ligand profiling; conditions: Compound concentration 10.0 uM
[24] = biological target: T2, Muscarinic acetylcholine receptor M5 (Homo sapiens) (UniProt P08912); experiment: M5 (h) CEREP ligand profiling; conditions: Compound concentration 10.0 uM
T2 sequence (whole entry): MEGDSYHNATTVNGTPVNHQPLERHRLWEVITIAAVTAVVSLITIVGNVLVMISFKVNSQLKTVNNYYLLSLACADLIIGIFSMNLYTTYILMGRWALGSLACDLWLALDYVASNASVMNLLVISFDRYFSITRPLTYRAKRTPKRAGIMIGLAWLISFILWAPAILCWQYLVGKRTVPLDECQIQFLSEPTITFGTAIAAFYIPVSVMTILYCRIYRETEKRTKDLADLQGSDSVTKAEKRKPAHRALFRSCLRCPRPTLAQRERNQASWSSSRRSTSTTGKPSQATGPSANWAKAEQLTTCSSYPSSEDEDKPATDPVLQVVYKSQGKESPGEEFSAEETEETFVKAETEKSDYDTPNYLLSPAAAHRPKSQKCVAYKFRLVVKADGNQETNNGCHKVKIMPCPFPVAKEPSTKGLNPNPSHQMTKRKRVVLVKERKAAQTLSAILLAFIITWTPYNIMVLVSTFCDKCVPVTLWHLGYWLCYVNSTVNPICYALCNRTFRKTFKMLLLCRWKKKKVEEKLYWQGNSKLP

[25] = biological target: Proto-oncogene tyrosine-protein kinase ROS (Homo sapiens) (UniProt P08922); conditions: Compound concentration 1000.0 nM
[26] = biological target: Tyrosine-protein kinase BTK (Homo sapiens) (UniProt Q06187); conditions: Compound concentration 1000.0 nM
[27] = biological target: Type-1 angiotensin II receptor (Homo sapiens) (UniProt P30556); experiment: AT1 (h) CEREP ligand profiling; conditions: Compound concentration 10.0 uM
Chain of Type-1 angiotensin II receptor (Homo sapiens) (P30556 whole entry): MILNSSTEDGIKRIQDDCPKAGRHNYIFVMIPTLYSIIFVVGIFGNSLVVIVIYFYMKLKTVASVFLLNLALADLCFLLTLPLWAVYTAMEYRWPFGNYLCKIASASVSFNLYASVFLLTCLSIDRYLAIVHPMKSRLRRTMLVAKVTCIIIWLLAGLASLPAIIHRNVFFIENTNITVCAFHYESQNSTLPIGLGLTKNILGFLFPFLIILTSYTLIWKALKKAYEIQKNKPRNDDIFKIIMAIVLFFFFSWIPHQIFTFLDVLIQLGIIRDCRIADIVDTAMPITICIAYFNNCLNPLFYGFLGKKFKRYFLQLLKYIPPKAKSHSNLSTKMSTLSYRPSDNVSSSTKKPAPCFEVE

[28] = biological target: Peripheral plasma membrane protein CASK (Homo sapiens) (UniProt O14936); conditions: Compound concentration 1000.0 nM
[29] = biological target: Dual 3',5'-cyclic-AMP and -GMP phosphodiesterase 11A (Homo sapiens) (UniProt Q9HCR9); experiment: PDE11 (h) CEREP ligand profiling; conditions: Compound concentration 10.0 uM
[30] = biological target: Cyclin-G-associated kinase (Homo sapiens) (UniProt O14976); conditions: Compound concentration 1000.0 nM
[31] = species on record: Rattus norvegicus; conditions: Compound concentration 10.0 uM

Chain of Phosphatidylinositol 5-phosphate 4-kinase type-2 beta (Homo sapiens) (P78356 whole entry): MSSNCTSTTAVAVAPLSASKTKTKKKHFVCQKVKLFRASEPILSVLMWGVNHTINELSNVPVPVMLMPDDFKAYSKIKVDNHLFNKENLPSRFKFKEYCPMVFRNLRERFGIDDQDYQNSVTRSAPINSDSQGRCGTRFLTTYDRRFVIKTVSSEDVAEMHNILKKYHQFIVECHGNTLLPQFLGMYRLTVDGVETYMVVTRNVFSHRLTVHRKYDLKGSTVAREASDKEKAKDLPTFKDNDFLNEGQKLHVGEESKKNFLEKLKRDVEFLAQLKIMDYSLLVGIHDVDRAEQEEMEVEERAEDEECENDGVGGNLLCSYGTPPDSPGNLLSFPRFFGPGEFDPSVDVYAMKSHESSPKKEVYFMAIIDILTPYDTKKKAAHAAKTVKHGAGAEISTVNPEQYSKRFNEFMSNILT

**Q.** COc1ccc2cc(OCC3(C(=O)O)CN(C(=O)c4ccc(F)cc4)C3)ccc2c1 [PF-04418948] was tested. Which residual activity [1] did it give?
**A.** Its residual activity is 85%.

**Q.** What about the residual activity [2] of the same compound?
**A.** Its residual activity is 74%.

**Q.** And the inhibition at 10 µM [3]?
**A.** Its inhibition at 10 µM is 9% (not active).

**Q.** And the residual activity [4]?
**A.** The residual activity was 93%.

**Q.** And the residual activity [5]?
**A.** The residual activity was 91%.

**Q.** And the residual activity [6]?
**A.** Its residual activity is 91%.

**Q.** What about the inhibition [7] of the same compound?
**A.** Its inhibition is -1%.

**Q.** What about the residual activity [8] of the same compound?
**A.** The residual activity was 50%.

**Q.** What about the residual activity [9] of the same compound?
**A.** The residual activity was 72%.

**Q.** What about the residual activity [10] of the same compound?
**A.** Its residual activity is 86%.

**Q.** What about the inhibition [11] of the same compound?
**A.** The inhibition was 3%.

**Q.** What about the residual activity [12] of the same compound?
**A.** The residual activity was 94%.

**Q.** And the residual activity [13]?
**A.** The residual activity was 85%.

**Q.** And the residual activity [14]?
**A.** Its residual activity is 65%.

**Q.** What about the residual activity [15] of the same compound?
**A.** The residual activity was 93%.

**Q.** What about the residual activity [16] of the same compound?
**A.** Its residual activity is 98%.

**Q.** And the residual activity [17]?
**A.** The residual activity was 90%.

**Q.** What about the residual activity [18] of the same compound?
**A.** Its residual activity is 92%.

**Q.** What about the inhibition [19] of the same compound?
**A.** The inhibition was 4%.

**Q.** What about the inhibition [20] of the same compound?
**A.** Its inhibition is -10%.

**Q.** And the residual activity [21]?
**A.** The residual activity was 89%.

**Q.** And the residual activity [22]?
**A.** The residual activity was 81%.

**Q.** What about the inhibition [23] of the same compound?
**A.** Its inhibition is 14%.

**Q.** And the inhibition [24]?
**A.** The inhibition was 1%.

**Q.** And the residual activity [25]?
**A.** Its residual activity is 81%.

**Q.** What about the residual activity [26] of the same compound?
**A.** The residual activity was 84%.

**Q.** What about the inhibition [27] of the same compound?
**A.** The inhibition was 1%.

**Q.** And the residual activity [28]?
**A.** Its residual activity is 91%.

**Q.** What about the inhibition [29] of the same compound?
**A.** The inhibition was 14%.

**Q.** And the residual activity [30]?
**A.** Its residual activity is 88%.

**Q.** O=C(c1ccc(F)cc1)N1CC(COc2ccc(Br)cc2)(C(=O)O)C1 [PF-04475866] was tested. Which inhibition [31] did it give?
**A.** The inhibition was 16.3%.
